# How the values were obtained:
# Assay type in all cases: cell-based
# [1] = tested on: chondrogenic progenitor ATDC5 cells; experiment: Detection of glycosaminoglycan by Alcian blue staining (absorbance at 620 nm); conditions: day 24 of culture
# Method: (§1) Using chondrogenic progenitor ATDC5 cells, the effects of liquiritin on the differentiation of chondrogenic progenitor cells into chondrocytes, proliferation of chondrocytes, and production of cartilaginous matrix were investigated as follows.
# (§2) ATDC5 cells (obtained from RIKEN BioResource Research Center) were seeded at 1×10^4 cells/well in a microplate containing 0.5 mL of Dulbecco's modified Eagle medium (DMEM)/Ham's F-12 medium (manufactured by FUJIFILM Wako Pure Chemical Corporation), and cultured at 37° C. in the presence of 5% by volume carbon dioxide. […]
# On day 24 of culture, the cells were fixed with 95% by volume ethanol, and then stained with Alcian blue staining solution (prepared with 1% Alcian blue and 3% acetic acid aqueous solution, pH=2.5), and glycosaminoglycan was detected.
# Then, the Alcian blue dye of the stained cultured cells was solubilized with 6M guanidine hydrochloride, and the absorbance at 620 nm was measured using a plate reader (Infinite 200 PRO, manufactured by Tecan Japan Co., Ltd., for each liquiritin concentration and control, n=4). The measurement results are shown in FIG. 1 as meantstandard deviation based on relative values when the absorbance in the control is 100. […]
# [2] = tested on: chondrogenic progenitor ATDC5 cells; experiment: Quantification of intracellular sulfated glycosaminoglycan (dimethylmethylene blue, absorbance at 525 nm)
# Method: as §1, §2
# Each sample (20 μL) was blended with 200 μL of a 16 mg/L dimethylmethylene blue solution (prepared with an aqueous solution (pH=3.0) containing 40 mM glycine, 27 mM sodium chloride, and 10 mM acetic acid), and the absorbance at 525 nm was measured and sulfated glycosaminoglycan in the sample was quantified (n=4 for each). The quantification results are shown in FIG. 2 as meantstandard deviation. As regards the quantification results, an unpaired t-test was performed between each group added with liquiritin at the above-mentioned concentration and the control.
# [3] = tested on: chondrogenic progenitor ATDC5 cells; experiment: Content of DNA in cell digestive fluid as index of cell number; conditions: day 24 of culture; at 10 μM and 20 μM significant at P<0.01 vs control (FIG. 3)
# Method: as §1
# ATDC5 cells (obtained from RIKEN BioResource Research Center) were seeded at 1×10^4 cells/well in a microplate containing 0.5 mL of Dulbecco's modified Eagle medium (DMEM)/Ham's F-12 medium (manufactured by FUJIFILM Wako Pure Chemical Corporation), and cultured at 37° C. in the presence of 5% by volume carbon dioxide.
# On days 3, 6, 9, 12, 15, 18 and 21 of culture, transferrin and sodium selenite, which are differentiation-inducing reagents, were each added to the aforementioned medium at final concentrations of 10 μg/mL and 30 nM, respectively, and further, the medium was replaced with a medium to which liquiritin was added at each final concentration of 5 μM, 10 μM, or 20 μM, and the culture was continued.
# The case of same treatment without adding liquiritin (liquiritin concentration=0 μM) was used as a control. […]
# The content of DNA in the above-mentioned sample was measured using a DNA quantification kit (“DNA Assay Kit”, manufactured by Cosmo Bio Company, Limited) (n=4 for each) and used as an index of cell number. […]
# [4] = tested on: chondrogenic progenitor ATDC5 cells; experiment: Measurement of number of cells under microscope
# Method: Using chondrogenic progenitor ATDC5 cells, the effects of liquiritin on the differentiation of chondrogenic progenitor cells into chondrocytes, proliferation of chondrocytes, and production of cartilaginous matrix were investigated as follows. ATDC5 cells (obtained from RIKEN BioResource Research Center) were seeded at 1×10^4 cells/well in a microplate containing 0.5 mL of Dulbecco's modified Eagle medium (DMEM)/Ham's F-12 medium (manufactured by FUJIFILM Wako Pure Chemical Corporation), and cultured at 37° C. in the presence of 5% by volume carbon dioxide. […] In addition, on day 24 of culture, the cells were washed with 10 mM phosphate buffered saline (pH=7.4), the cells were detached using 0.25 (w/v) % trypsin-1 mM tetrasodium ethylenediaminetetraacetate solution (manufactured by FUJIFILM Wako Pure Chemical Corporation), the number of cells in the cell suspension was observed under an inverted culture microscope (CK40, manufactured by Olympus Corporation) (magnification=10x), and the number of cells was measured (n=4 for each). […]
compound,measurement,setting,value
"O=C1C[C@@H](c2ccc(O[C@@H]3O[C@H](CO)[C@@H](O)[C@H](O)[C@H]3O)cc2)Oc2cc(O)ccc21 [liquiritin, (2S)-2,3-dihydro-7-hydroxy-2-[4-(β-D-glucopyranosyloxy)phenyl]-4H-1-benzopyran-4-one]",absorbance at 620 nm of solubilized Alcian blue dye compared to the control,"[1]; 20 μM liquiritin, P<0.05 (FIG. 1)",significant increase
same,glycosaminoglycan stained with Alcian blue in cultured cells,"[1]; not less than 10 μM liquiritin, vs control (FIG. 1)",increased
same,amount of sulfated glycosaminoglycan contained in cell digestive fluid,"[2]; 5 μM to 20 μM liquiritin, day 24 of culture, P<0.01 vs control (FIG. 2)",significant increase
same,concentration promoting production of glycosaminoglycan by chondrocytes (as low as),"[2]; ATDC5 cells, conclusion from results",5 µM
same,content of DNA in the cell digestive fluid (index of cell number),[3],increased with the addition concentration
same,cell number on day 24 of culture,[4]; at 10 μM and 20 μM significant at P<0.05 vs control (FIG. 4),increased with the addition concentration
same,cytotoxicity,"[4]; concentration range 10 μM to 20 μM, ATDC5 cells",does not exhibit cytotoxicity

# Source: US20240390407A1, “PROMOTER FOR DIFFERENTIATION INTO CARTILAGE CELL, CARTILAGE CELL PROPAGATION PROMOTER, AND CARTILAGE MATRIX PRODUCTION PROMOTER” (HOKURIKU UNIVERSITY, priority 2021, published 2024)
